According to US11446298B2, “Pyrimidine derivatives” (Idorsia Pharmaceuticals Ltd, priority 2017, dated 2022):

Key:
Format in all cases: cell-based
[1] = target: T1, PTGER2 (EP2) (Homo sapiens, UniProt P43116); test: hEP2 b-Arrestin Assay (PathHunter HEK 293 PTGER2 b-arrestin cells, PGE2 5 μM); conditions: antagonistic activity, beta-arrestin assay, HEK 293 PTGER2 cells, PGE2 5 μM (EC80); read-out: hEP2 b-arr IC50
T1 construct: host or cells: HEK 293 (PathHunter, stably transfected)
Procedure: (§1) The antagonistic activities of the compounds of formula (I) on the EP2 and EP4 receptors are also determined in accordance with the following experimental method.
The assay is using the PathHunter™ HEK 293 PTGER2 and PTGER4 b-arrestin cell lines from DiscoverX. The system is based on the Enzyme Fragment Complementation Technology. Two complementing fragments of the b-galactosidase enzyme are expressed within stably transfected cells. The larger portion of b-gal, termed EA for Enzyme Acceptor, is fused to the C-terminus of b-arrestin 2. The smaller fragment, termed ProLink™ tag, is fused to PTGER2 (EP2) or PTRGER4 (EP4) at the C-terminus. Upon activation, b-arrestin is recruited which forces the interaction of ProLink and EA, allowing complementation of the two fragments of b-gal and the formation of a functional enzyme which is capable of hydrolysing the substrate and generating a chemiluminescent signal.
The HEK 293 PTGER2 b-arrestin cells (DiscoverX 93-021-4C1) are detached from culture dishes with a cell dissociation buffer (Invitrogen, 13151-014), and collected in growing medium (GM: DMEM+Glutamax-I (Invitrogen 32430)/10% FCS, 1% Penicilin/streptomycin). 5000 cells per well of a 384 well plate (white with white bottom Greiner 781080) are seeded in 20 μl per well of GM. Plate is incubated at 37° C., 5% CO2 for 24 hours.
Stock solutions of test compounds are made at a concentration of 10 mM in DMSO, and serially diluted in DMSO to concentrations required for inhibition dose response curves (tested concentration range 10 μM-2 nM or 1 μM-0.2 nM).
PGE2 (Cayman 14010, stock solution: 10 mM in DMSO) is used as agonist at 5 μM final concentration, corresponding to EC80.
Five microliters of diluted compounds are transferred into the assay plate. Plate is pre-incubated 15 minutes at 37° C. Then five microliters of PGE2 (final conc. 5 μM) are transferred into the assay plate. Plate is incubated 120 minutes at 37° C.
PathHunter Glo Detection Kit components are thawed and mix according to manufacturer's instructions: 1 part Galacton Star Substrate with 5 parts Emerald II™ Solution, and 19 parts of PathHunter Cell Assay Buffer, respectively. Twelve μl of reagent are transferred to the assay plate and incubate for 1 hour at room temperature in the dark. Luminescence counts are read on a BMG Fluostar Optima reader according to manufacturer's instructions.
For each compound concentration calculate of the percentage of activity compared to DMSO control value as average ±STDEV. (each concentration is measured in duplicate)
(§2) IC50 values and curves are generated with XLfit software (IDBS) using Dose-Response One Site model 203. When compounds were measured multiple times, mean values are given.

[2] = target: T2, EP2 (Homo sapiens, UniProt P43116); test: hEP2 cAMP Assay (SF295 glioblastoma cells, HTRF cAMP, PGE2 75 nM); conditions: antagonistic activity, PGE2 75 nM (EC80)
T2 construct: SF295 glioblastoma cells express high endogenous EP2 and no EP4; host or cells: SF295 glioblastoma cells
T2 sequence (P43116 whole entry): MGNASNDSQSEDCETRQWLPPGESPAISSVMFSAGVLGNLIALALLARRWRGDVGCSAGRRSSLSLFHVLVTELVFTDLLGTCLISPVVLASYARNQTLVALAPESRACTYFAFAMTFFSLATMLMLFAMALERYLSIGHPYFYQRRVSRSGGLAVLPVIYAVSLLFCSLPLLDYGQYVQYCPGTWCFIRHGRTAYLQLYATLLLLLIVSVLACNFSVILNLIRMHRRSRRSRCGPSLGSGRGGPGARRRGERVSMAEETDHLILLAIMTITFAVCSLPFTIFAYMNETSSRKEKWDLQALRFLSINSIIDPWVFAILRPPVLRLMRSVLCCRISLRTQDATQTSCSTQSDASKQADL
Procedure: as §1
(§3) Human tumor cell lines expressing endogenously either EP4 or EP2 are used and cAMP accumulation in cells upon PGE2 stimulation is monitored. SF295 glioblastoma cells express high endogenous EP2 and no EP4, whereas BT549 breast cancer cells, express high endogenous EP4 levels and very low EP2 levels.
(§4) As a detection method for cAMP the HTRF (homogeneous time resolved fluorescence) Cisbio kit (HTRF cAMP dynamic 2 kit 20′000 tests Cisbio Cat. #62AM4PEC) was used, which is based on a competitive immunoassay using a Cryptate-labeled anti-cAMP antibody and d2-labeled cAMP. Native cAMP produced by cells or unlabeled cAMP (for the standard curve) compete with exogenously added d2-labeled cAMP (acceptor) for binding to monoclonal anti-cAMP-Eu3+Cryptate (donor). A FRET signal (Fluorescence Resonance Energy Transfer) is obtained only if the labeled anti-cAMP antibody binds the d2 labelled cAMP, thus the specific signal (i.e. energy transfer) is inversely proportional to the concentration of cAMP in the standard or sample.
(§5) The SF295 cells (NCI/No. 0503170) are detached from culture dishes with a cell dissociation buffer (Invitrogen, 13151-014), and collected in growing medium (GM: RPM11640 (Invitrogen 21875)/10% FCS, 1% Penicilin/streptomycin). Cells are counted washed and resuspended in assay buffer (AB; HBSS, 20 mM HEPES, 0.2% BSA; 2 mM IBMX). 4′000 cells in 5 μL of AB are seeded per well of a small volume 384 well plate (black with flat bottom, Greiner 784076).
(§6) Stock solutions of test compounds are made at a concentration of 10 mM in DMSO, and serially diluted in DMSO to concentrations required for inhibition dose response curves (tested concentration range 30 μM-0.4 nM; 30 μM-0.015 nM or 1 μM-0.01 nM).
PGE2 (Cayman 14010, stock solution: 75 μM in DMSO) is used as agonist at 75 nM final concentration, corresponding to EC80.
(§7) 2.5 μL of diluted compounds are transferred into the assay plate. Plate is pre-incubated 45 minutes at room temperature. Subsequently, 2.5 μL of PGE2 (final conc. 75 nM) are transferred into the assay plate. Plate is incubated 30 minutes at room temperature. Five μL of each donor (anti-cAMP cryptate) and acceptor (cAMP-d2) are added and the plate is incubated another hour at room temperature in the dark and then read using a BMG LABTECH PHERAstar reader (Excitation: 337 nm, Emission: 620 and 665 nm).
(§8) The obtained Delta F (fluorescence) values (665 nm/620 nM) are converted into % cAMP values using the measurements of the cAMP calibrator provided in the kit. For each compound concentration the percentage of cAMP compared to DMSO control value as average ±STDEV (each concentration is measured in duplicate) is calculated.
as §2

[3] = target: T3, EP4 (Homo sapiens, UniProt P35408); test: hEP4 cAMP Assay (BT549 breast cancer cells, HTRF cAMP, PGE2 6 nM); conditions: antagonistic activity, PGE2 6 nM (EC80)
T3 construct: BT549 breast cancer cells, express high endogenous EP4 levels and very low EP2 levels; host or cells: BT549 breast cancer cells
T3 sequence (P35408 whole entry): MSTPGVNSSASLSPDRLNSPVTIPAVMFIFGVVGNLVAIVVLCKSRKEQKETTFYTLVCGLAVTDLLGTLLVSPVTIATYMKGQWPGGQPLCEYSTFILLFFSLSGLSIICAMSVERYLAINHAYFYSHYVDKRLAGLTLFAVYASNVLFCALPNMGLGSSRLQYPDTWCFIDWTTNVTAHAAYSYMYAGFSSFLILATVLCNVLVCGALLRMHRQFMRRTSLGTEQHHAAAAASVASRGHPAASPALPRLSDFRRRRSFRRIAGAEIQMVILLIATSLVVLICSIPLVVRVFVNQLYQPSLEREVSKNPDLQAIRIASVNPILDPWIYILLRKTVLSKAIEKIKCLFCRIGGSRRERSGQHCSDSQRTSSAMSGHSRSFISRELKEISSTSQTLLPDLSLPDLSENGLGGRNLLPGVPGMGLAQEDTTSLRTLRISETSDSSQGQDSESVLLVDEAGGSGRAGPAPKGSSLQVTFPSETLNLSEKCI
Procedure: as §1, §3, §4
as §5, with “BT549” for “SF295”, “0507282)” for “0503170)”, “RPMI1640” for “RPM11640”
as §6
PGE2 (Cayman 14010, stock solution: 6 uM in DMSO) is used as agonist at 6 nM final concentration, corresponding to EC80.
as §7, with “6” for “75”, “5” for “Five”
as §8, §2

T1 sequence (P43116 whole entry): as the sequence (P43116 whole entry) above

SMILES	IC50 [1] [nM]	IC50 [2] [nM]	IC50 [3] [nM]
O=C(O)c1ccc(-c2cc(NCCc3ccc(Cl)c4ccccc34)ncn2)cc1OC1CCC1 [Example 61, 4-{6-[2-(4-Chloro-naphthalen-1-yl)-ethylamino]-pyrimidin-4-yl}-2-cyclobutoxy-benzoic acid]	113	183	745
Cc1ccc2c(cnn2C)c1CCNc1cc(-c2ccc3ncccc3c2)ncn1 [Example 114, [2-(1,5-Dimethyl-1H-indazol-4-yl)-ethyl]-(6-quinolin-6-yl-pyrimidin-4-yl)-amine]	224	35	492
O=C(O)c1ccc(-c2cc(NCCc3ccc(F)c4ccccc34)ncn2)cc1OC1CCC1 [Example 20, 2-Cyclobutoxy-4-{6-[2-(4-fluoro-naphthalen-1-yl)-ethylamino]-pyrimidin-4-yl}-benzoic acid]	73	199	680
Cc1ccc(CCNc2cc(-c3ccc(C(=O)O)c(OC4CCC4)c3)ncn2)c2ccccc12 [Example 17, 2-Cyclobutoxy-4-{6-[2-(4-methyl-naphthalen-1-yl)-ethylamino]-pyrimidin-4-yl}-benzoic acid]	95	281	270
CCOc1cc(-c2cc(NCCc3cccc4c3ccn4C)ncn2)ccc1OCC(=O)O [Example 49, (2-Ethoxy-4-{6-[2-(1-methyl-1H-indol-4-yl)-ethylamino]-pyrimidin-4-yl}-phenoxy)-acetic acid]	108	160	458
COc1ccc2ncccc2c1CCNc1cc(-c2ccc(C(=O)O)c(OC3CCC3)c2)ncn1 [Example 64, 2-Cyclobutoxy-4-{6-[2-(6-methoxy-quinolin-5-yl)-ethylamino]-pyrimidin-4-yl}-benzoic acid]	106	80	872
O=C(O)c1ccc(-c2cc(NCCc3cccc4ccccc34)ncn2)cc1OC1CCC1 [Example 8, 2-Cyclobutoxy-4-[6-(2-naphthalen-1-yl-ethylamino)-pyrimidin-4-yl]-benzoic acid]	71	133	568
O=C(O)c1sc(-c2cc(NCCc3cccc4cccnc34)ncn2)cc1C(F)(F)F [Example 82, 5-[6-(2-Quinolin-8-yl-ethylamino)-pyrimidin-4-yl]-3-trifluoromethyl-thiophene-2-carboxylic acid]	–	987	960
CCOc1cc(-c2cc(NCCc3cc(OC)cc4ccccc34)ncn2)ccc1C(=O)O [Example 40, 2-Ethoxy-4-{6-[2-(3-methoxy-naphthalen-1-yl)-ethylamino]-pyrimidin-4-yl}-benzoic acid]	–	525	853
O=C(O)c1ccc(-c2cc(NCCc3cccc4cccnc34)ncn2)cc1OC1CCC1 [Example 22, 2-Cyclobutoxy-4-[6-(2-quinolin-8-yl-ethylamino)-pyrimidin-4-yl]-benzoic acid]	–	949	613

Continued, values first:

IC50 [1] [nM]	IC50 [2] [nM]	IC50 [3] [nM]	SMILES
53	52	292	CCOc1cc(-c2cc(NCCc3cccc4cc(C)n(C)c34)ncn2)sc1C(=O)O [Example 56, 5-{6-[2-(1,2-Dimethyl-1H-indol-7-yl)-ethylamino]-pyrimidin-4-yl}-3-ethoxy-thiophene-2-carboxylic acid]
126	53	596	CCOc1cc(-c2cc(NCCc3cccc4cc(C)[nH]c34)ncn2)sc1C(=O)O [Example 37, 3-Ethoxy-5-{6-[2-(2-methyl-1H-indol-7-yl)-ethylamino]-pyrimidin-4-yl}-thiophene-2-carboxylic acid]
190	210	685	COc1ccc2ncccc2c1CCNc1cc(-c2ccnc(N3CCCCC3)c2)ncn1 [Example 112, [2-(6-Methoxy-quinolin-5-yl)-ethyl]-[6-(3,4,5,6-tetrahydro-2H-[1,2′]bipyridinyl-4′-yl)-pyrimidin-4-yl]amine]
31	29	550	CCCc1cc(-c2cc(NCCc3c(OC)ccc4ccccc34)ncn2)cc(F)c1C(=O)O [Example 123, 2-Fluoro-4-{6-[2-(2-methoxy-naphthalen-1-yl)-ethylamino]-pyrimidin-4-yl}-6-propyl-benzoic acid]
61	49	381	CCOc1cc(-c2cc(NCCc3c(OC)ccc4ccccc34)ncn2)sc1CC(=O)O [Example 132, (3-Ethoxy-5-{6-[2-(2-methoxy-naphthalen-1-yl)-ethylamino]-pyrimidin-4-yl}-thiophen-2-yl)-acetic acid]
87	15	289	COc1ccc2ccccc2c1CCNc1cc(-c2cc3c(C(=O)O)cccc3[nH]2)ncn1 [Example 129, 2-{6-[2-(2-Methoxy-naphthalen-1-yl)-ethylamino]-pyrimidin-4-yl}-1H-indole-4-carboxylic acid]
–	784	685	CCOc1cc(-c2cc(NCCc3cccc4ccsc34)ncn2)ccc1CC(=O)O [Example 105, {4-[6-(2-Benzo[b]thiophen-7-yl-ethylamino)-pyrimidin-4-yl]-2-ethoxy-phenyl}-acetic acid]
